{"source": "patent US8906933B2", "about": "“Dihydropyrimidin-2(1H)-one compounds as neurokinin-3 receptor antagonists” (N30 Pharmaceuticals, Inc., priority 2010, dated 2014)"}
{"biological_target": "T1, human NK3 receptor (Homo sapiens (Human), UniProt P29371)", "T1 sequence (P29371 whole entry)": "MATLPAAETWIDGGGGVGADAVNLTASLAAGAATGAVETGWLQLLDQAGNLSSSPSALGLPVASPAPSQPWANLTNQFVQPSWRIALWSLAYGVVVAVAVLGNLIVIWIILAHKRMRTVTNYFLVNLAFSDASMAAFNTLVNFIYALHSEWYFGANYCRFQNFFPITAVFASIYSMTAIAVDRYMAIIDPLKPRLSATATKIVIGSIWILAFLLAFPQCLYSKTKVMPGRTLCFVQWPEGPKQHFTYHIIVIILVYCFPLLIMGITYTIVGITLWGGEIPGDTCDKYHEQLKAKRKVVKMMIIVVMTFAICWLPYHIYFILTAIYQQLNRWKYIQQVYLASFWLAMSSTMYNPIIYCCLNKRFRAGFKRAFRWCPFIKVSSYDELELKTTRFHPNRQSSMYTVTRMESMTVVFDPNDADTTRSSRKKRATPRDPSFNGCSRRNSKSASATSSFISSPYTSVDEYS", "experiment": "Human NK3 receptor binding assay at 10 μM", "details": "10 μM test compound; [3H]SR142801, CHO cell membranes; read-out: percent inhibition at 10 μM", "description": "(§1) Antagonist activity was evaluated at a concentration of 10 μM for a representative subset of test compounds, and the results were expressed as the percent inhibition at that concentration.\n(§2) Each test compound was evaluated at a single concentration of 10 μM. […] The results are expressed as a percent of control specific binding ((measured specific binding/control specific binding)×100) obtained in the presence of the test compounds.", "units": {"inhibition at 10 µM": "%"}}
{"smiles": "CCOc1cc(C2NC(=O)NC(c3ccccc3)=C2c2cccc(C#N)c2)cc([N+](=O)[O-])c1O", "note": "(stereo not shown) [3-(4-(3-ethoxy-4-hydroxy-5-nitrophenyl)-2-oxo-6-phenyl-1,2,3,4-tetrahydropyrimidin-5-yl)benzonitrile]", "inhibition at 10 µM": "> 50"}
{"smiles": "O=C1NC(c2ccccc2)=C(c2ccccc2)C(c2cc(Cl)c(O)c([N+](=O)[O-])c2)N1", "note": "(stereo not shown) [4-(3-chloro-4-hydroxy-5-nitrophenyl)-5,6-diphenyl-3,4-dihydropyrimidin-2(1H)-one]", "inhibition at 10 µM": "> 50"}
{"smiles": "CCOc1cc(C2NC(=O)NC(c3ccccc3)=C2c2ccccc2)cc([N+](=O)[O-])c1O", "note": "(stereo not shown) [4-(3-ethoxy-4-hydroxy-5-nitrophenyl)-5,6-diphenyl-3,4-dihydropyrimidin-2(1H)-one]", "inhibition at 10 µM": "> 50"}
{"smiles": "CCOc1cc(C2NC(=O)NC(c3ccccc3)=C2c2ccccc2F)cc([N+](=O)[O-])c1O", "note": "(stereo not shown) [4-(3-ethoxy-4-hydroxy-5-nitrophenyl)-5-(2-fluorophenyl)-6-phenyl-3,4-dihydropyrimidin-2(1H)-one]", "inhibition at 10 µM": "> 50"}
{"smiles": "CCOc1cc(C2NC(=O)NC(c3cccnc3)=C2c2ccccc2)cc([N+](=O)[O-])c1O", "note": "(stereo not shown) [4-(3-ethoxy-4-hydroxy-5-nitrophenyl)-5-phenyl-6-(pyridin-3-yl)-3,4-dihydropyrimidin-2(1H)-one]", "inhibition at 10 µM": "> 50"}
{"smiles": "CCOc1cc(C2NC(=O)NC(c3cccs3)=C2c2ccccc2)cc([N+](=O)[O-])c1O", "note": "(stereo not shown) [4-(3-ethoxy-4-hydroxy-5-nitrophenyl)-5-phenyl-6-(thiophen-2-yl)-3,4-dihydropyrimidin-2(1H)-one]", "inhibition at 10 µM": "> 50"}
{"smiles": "CCOc1cc(C2NC(=O)NC(c3ccsc3)=C2c2ccccc2)cc([N+](=O)[O-])c1O", "note": "(stereo not shown) [4-(3-ethoxy-4-hydroxy-5-nitrophenyl)-5-phenyl-6-(thiophen-3-yl)-3,4-dihydropyrimidin-2(1H)-one]", "inhibition at 10 µM": "> 50"}
{"smiles": "CCOc1cc(C2NC(=O)NC(c3ccn(C)n3)=C2c2ccsc2)cc([N+](=O)[O-])c1O", "note": "(stereo not shown) [4-(3-ethoxy-4-hydroxy-5-nitrophenyl)-6-(1-methyl-1H-pyrazol-3-yl)-5-(thiophen-3-yl)-3,4-dihydropyrimidin-2(1H)-one]", "inhibition at 10 µM": "> 50"}
{"smiles": "CCOc1cc(C2NC(=O)NC(c3cnn(C)c3)=C2c2ccsc2)cc([N+](=O)[O-])c1O", "note": "(stereo not shown) [4-(3-ethoxy-4-hydroxy-5-nitrophenyl)-6-(1-methyl-1H-pyrazol-4-yl)-5-(thiophen-3-yl)-3,4-dihydropyrimidin-2(1H)-one]", "inhibition at 10 µM": "> 50"}
{"smiles": "CCOc1cc(C2NC(=O)NC(c3ccoc3)=C2c2ccccc2)cc([N+](=O)[O-])c1O", "note": "(stereo not shown) [4-(3-ethoxy-4-hydroxy-5-nitrophenyl)-6-(furan-3-yl)-5-phenyl-3,4-dihydropyrimidin-2(1H)-one]", "inhibition at 10 µM": "> 50"}
{"smiles": "CCOc1cc(C2NC(=O)NC(c3cccnc3)=C2c2ccsc2)cc([N+](=O)[O-])c1O", "note": "(stereo not shown) [4-(3-ethoxy-4-hydroxy-5-nitrophenyl)-6-(pyridin-3-yl)-5-(thiophen-3-yl)-3,4-dihydropyrimidin-2(1H)-one]", "inhibition at 10 µM": "> 50"}
{"smiles": "CCOc1cc(C2NC(=O)NC(c3ccccc3)=C2c2cccs2)cc([N+](=O)[O-])c1O", "note": "(stereo not shown) [4-(3-ethoxy-4-hydroxy-5-nitrophenyl)-6-phenyl-5-(thiophen-2-yl)-3,4-dihydropyrimidin-2(1H)-one]", "inhibition at 10 µM": "> 50"}
{"smiles": "CCOc1cc(C2NC(=O)NC(c3ccccc3)=C2c2ccsc2)cc([N+](=O)[O-])c1O", "note": "(stereo not shown) [4-(3-ethoxy-4-hydroxy-5-nitrophenyl)-6-phenyl-5-(thiophen-3-yl)-3,4-dihydropyrimidin-2(1H)-one]", "inhibition at 10 µM": "> 50"}
{"biological_target": "T1, human NK3 receptor", "experiment": "Human NK3 receptor binding assay at 10 μM", "details": "read-out: NK3, % inhibition @ 10 μM; 10 μM test compound; [3H]SR142801, CHO cell membranes", "description": "as §1, §2", "units": {"inhibition at 10 µM": "%"}}
{"smiles": "CCOc1cc(C2NC(=O)NC(c3ccccc3)=C2c2ccccc2)cc([N+](=O)[O-])c1O", "note": "(stereo not shown) [4-(3-ethoxy-4-hydroxy-5-nitrophenyl)-5,6-diphenyl-3,4-dihydropyrimidin-2(1H)-one]", "inhibition at 10 µM": 88}
{"smiles": "CCOc1cc(C2NC(=O)NC(c3cccnc3)=C2c2ccccc2)cc([N+](=O)[O-])c1O", "note": "(stereo not shown) [4-(3-ethoxy-4-hydroxy-5-nitrophenyl)-5-phenyl-6-(pyridin-3-yl)-3,4-dihydropyrimidin-2(1H)-one]", "inhibition at 10 µM": 92}
{"smiles": "CCOc1cc(C2NC(=O)NC(c3ccn(C)n3)=C2c2ccsc2)cc([N+](=O)[O-])c1O", "note": "(stereo not shown) [4-(3-ethoxy-4-hydroxy-5-nitrophenyl)-6-(1-methyl-1H-pyrazol-3-yl)-5-(thiophen-3-yl)-3,4-dihydropyrimidin-2(1H)-one]", "inhibition at 10 µM": 61}
{"smiles": "CCOc1cc(C2NC(=O)NC(c3cccnc3)=C2c2ccsc2)cc([N+](=O)[O-])c1O", "note": "(stereo not shown) [4-(3-ethoxy-4-hydroxy-5-nitrophenyl)-6-(pyridin-3-yl)-5-(thiophen-3-yl)-3,4-dihydropyrimidin-2(1H)-one]", "inhibition at 10 µM": 63}
{"smiles": "CCOc1cc(C2NC(=O)NC(c3ccccc3)=C2c2ccsc2)cc([N+](=O)[O-])c1O", "note": "(stereo not shown) [4-(3-ethoxy-4-hydroxy-5-nitrophenyl)-6-phenyl-5-(thiophen-3-yl)-3,4-dihydropyrimidin-2(1H)-one]", "inhibition at 10 µM": 97}
{"biological_target": "T1, human NK3 receptor", "experiment": "Human NK3 receptor binding assay at 1 uM", "details": "1 μM test compound; [3H]SR142801, CHO cell membranes; read-out: percent inhibition at 1 μM", "description": "Antagonist activity was evaluated at a concentration of 1 μM for a representative subset of test compounds, and the results were expressed as the percent inhibition at that concentration.\nEach test compound was evaluated at a single concentration of 1 μM. […] The results are expressed as a percent of control specific binding ((measured specific binding/control specific binding)×100) obtained in the presence of the test compounds.", "units": {"inhibition at 1 µM": "%"}}
{"smiles": "N#Cc1cccc(C2NC(=O)NC(c3ccccc3)=C2c2ccccc2)c1O", "note": "(stereo not shown) [2-hydroxy-3-(2-oxo-5,6-diphenyl-1,2,3,4-tetrahydropyrimidin-4-yl)benzonitrile]", "inhibition at 1 µM": "> 50"}
{"smiles": "CCOc1cc(C2NC(=O)NC(c3ccccc3)=C2c2ccccc2)cc(Br)c1O", "note": "(stereo not shown) [4-(3-bromo-5-ethoxy-4-hydroxyphenyl)-5,6-diphenyl-3,4-dihydropyrimidin-2(1H)-one]", "inhibition at 1 µM": "> 50"}
{"smiles": "CCOc1cc(C2NC(=O)NC(c3ccccc3)=C2c2ccccc2F)cc([N+](=O)[O-])c1O", "note": "(stereo not shown) [4-(3-ethoxy-4-hydroxy-5-nitrophenyl)-5-(2-fluorophenyl)-6-phenyl-3,4-dihydropyrimidin-2(1H)-one]", "inhibition at 1 µM": "> 50"}
{"smiles": "CCOc1cc(C2NC(=O)NC(c3ccccc3)=C2c2cccc(CC)c2)cc([N+](=O)[O-])c1O", "note": "(stereo not shown) [4-(3-ethoxy-4-hydroxy-5-nitrophenyl)-5-(3-ethylphenyl)-6-phenyl-3,4-dihydropyrimidin-2(1H)-one]", "inhibition at 1 µM": "> 50"}
{"smiles": "CCOc1cc(C2NC(=O)NC(c3ccccc3)=C2c2cccc(F)c2)cc([N+](=O)[O-])c1O", "note": "(stereo not shown) [4-(3-ethoxy-4-hydroxy-5-nitrophenyl)-5-(3-fluorophenyl)-6-phenyl-3,4-dihydropyrimidin-2(1H)-one]", "inhibition at 1 µM": "> 50"}
{"smiles": "CCOc1cc(C2NC(=O)NC(c3ccc(C(F)(F)F)cc3)=C2c2ccccc2)cc([N+](=O)[O-])c1O", "note": "(stereo not shown) [4-(3-ethoxy-4-hydroxy-5-nitrophenyl)-5-phenyl-6-(4-(trifluoromethyl)phenyl)-3,4-dihydropyrimidin-2(1H)-one]", "inhibition at 1 µM": "> 50"}
{"smiles": "CCOc1cc(C2NC(=O)NC(c3ccccc3F)=C2c2ccccc2)cc([N+](=O)[O-])c1O", "note": "(stereo not shown) [4-(3-ethoxy-4-hydroxy-5-nitrophenyl)-6-(2-fluorophenyl)-5-phenyl-3,4-dihydropyrimidin-2(1H)-one]", "inhibition at 1 µM": "> 50"}
{"smiles": "CCOc1cc(C2NC(=O)NC(c3ccc(F)cc3)=C2c2ccccc2)cc([N+](=O)[O-])c1O", "note": "(stereo not shown) [4-(3-ethoxy-4-hydroxy-5-nitrophenyl)-6-(4-fluorophenyl)-5-phenyl-3,4-dihydropyrimidin-2(1H)-one]", "inhibition at 1 µM": "> 50"}
{"smiles": "CCOc1cc(C2NC(=O)NC(c3ccccc3)=C2c2ccccc2C)cc([N+](=O)[O-])c1O", "note": "(stereo not shown) [4-(3-ethoxy-4-hydroxy-5-nitrophenyl)-6-phenyl-5-o-tolyl-3,4-dihydropyrimidin-2(1H)-one]", "inhibition at 1 µM": "> 50"}
{"smiles": "CCOc1cc(C2NC(=O)NC(c3ccccc3)=C2c2ccc(C)cc2)cc([N+](=O)[O-])c1O", "note": "(stereo not shown) [4-(3-ethoxy-4-hydroxy-5-nitrophenyl)-6-phenyl-5-p-tolyl-3,4-dihydropyrimidin-2(1H)-one]", "inhibition at 1 µM": "> 50"}
{"smiles": "CCOc1cc(C2NC(=O)NC(c3ccccc3)=C2c2ccccc2)cc(F)c1O", "note": "(stereo not shown) [4-(3-ethoxy-5-fluoro-4-hydroxyphenyl)-5,6-diphenyl-3,4-dihydropyrimidin-2(1H)-one]", "inhibition at 1 µM": "> 50"}
{"smiles": "O=C1NC(c2ccccc2)=C(c2ccccc2)C(c2ccc(O)c([N+](=O)[O-])c2)N1", "note": "(stereo not shown) [4-(4-hydroxy-3-nitrophenyl)-5,6-diphenyl-3,4-dihydropyrimidin-2(1H)-one]", "inhibition at 1 µM": "> 50"}
{"smiles": "CCOc1cc(C2NC(=O)NC(c3ccccc3)=C2c2ccccc2Cl)cc([N+](=O)[O-])c1O", "note": "(stereo not shown) [5-(2-chlorophenyl)-4-(3-ethoxy-4-hydroxy-5-nitrophenyl)-6-phenyl-3,4-dihydropyrimidin-2(1H)-one]", "inhibition at 1 µM": "> 50"}
{"smiles": "CCOc1cc(C2NC(=O)NC(c3ccccc3)=C2c2ccc(F)c(F)c2)cc([N+](=O)[O-])c1O", "note": "(stereo not shown) [5-(3,4-difluorophenyl)-4-(3-ethoxy-4-hydroxy-5-nitrophenyl)-6-phenyl-3,4-dihydropyrimidin-2(1H)-one]", "inhibition at 1 µM": "> 50"}
{"smiles": "CCOc1cc(C2NC(=O)NC(c3ccccc3)=C2c2ccc(Cl)cc2)cc([N+](=O)[O-])c1O", "note": "(stereo not shown) [5-(4-chlorophenyl)-4-(3-ethoxy-4-hydroxy-5-nitrophenyl)-6-phenyl-3,4-dihydropyrimidin-2(1H)-one]", "inhibition at 1 µM": "> 50"}
{"smiles": "CCOc1cc(C2NC(=O)NC(c3ccc(F)c(F)c3)=C2c2ccccc2)cc([N+](=O)[O-])c1O", "note": "(stereo not shown) [6-(3,4-difluorophenyl)-4-(3-ethoxy-4-hydroxy-5-nitrophenyl)-5-phenyl-3,4-dihydropyrimidin-2(1H)-one]", "inhibition at 1 µM": "> 50"}
{"smiles": "CCOc1cc(C2NC(=O)NC(c3cc(F)cc(F)c3)=C2c2ccccc2)cc([N+](=O)[O-])c1O", "note": "(stereo not shown) [6-(3,5-difluorophenyl)-4-(3-ethoxy-4-hydroxy-5-nitrophenyl)-5-phenyl-3,4-dihydropyrimidin-2(1H)-one]", "inhibition at 1 µM": "> 50"}
{"smiles": "CCOc1cc(C2NC(=O)NC(c3ccc(F)c(Cl)c3)=C2c2ccccc2)cc([N+](=O)[O-])c1O", "note": "(stereo not shown) [6-(3-chloro-4-fluorophenyl)-4-(3-ethoxy-4-hydroxy-5-nitrophenyl)-5-phenyl-3,4-dihydropyrimidin-2(1H)-one]", "inhibition at 1 µM": "> 50"}
{"smiles": "CCOc1cc(C2NC(=O)NC(c3cccc(Cl)c3)=C2c2ccccc2)cc([N+](=O)[O-])c1O", "note": "(stereo not shown) [6-(3-chlorophenyl)-4-(3-ethoxy-4-hydroxy-5-nitrophenyl)-5-phenyl-3,4-dihydropyrimidin-2(1H)-one]", "inhibition at 1 µM": "> 50"}
{"smiles": "CCOc1cc(C2NC(=O)NC(c3ccc(Cl)cc3)=C2c2ccccc2)cc([N+](=O)[O-])c1O", "note": "(stereo not shown) [6-(4-chlorophenyl)-4-(3-ethoxy-4-hydroxy-5-nitrophenyl)-5-phenyl-3,4-dihydropyrimidin-2(1H)-one]", "inhibition at 1 µM": "> 50"}
{"smiles": "CCOc1cc(C2NC(=O)NC(C3CCCC3)=C2c2ccccc2)cc([N+](=O)[O-])c1O", "note": "(stereo not shown) [6-cyclopentyl-4-(3-ethoxy-4-hydroxy-5-nitrophenyl)-5-phenyl-3,4-dihydropyrimidin-2(1H)-one]", "inhibition at 1 µM": "> 50"}
{"smiles": "CCOc1cc(C2NC(=O)NC(c3ccccc3)=C2c2ccccc2)cc2[nH]c(=O)oc12", "note": "(stereo not shown) [7-ethoxy-5-(2-oxo-5,6-diphenyl-1,2,3,4-tetrahydropyrimidin-4-yl)benzo[d]oxazol-2(3H)-one]", "inhibition at 1 µM": "> 50"}
